Measured values from ChEMBL document CHEMBL3885881, “DrugMatrix”.

Organism: Rattus norvegicus
Experiment: DrugMatrix - Regimen: Daily Repeat
Format: toxicity, organism-based, Sprague-Dawley
Design: regimen Daily Repeat, gender Male, age 6-8 weeks
Settings: in vivo, po, route oral GAVAGE, […]; for ABSOLUTE BASOPHIL / ABSOLUTE EOSINOPHIL / ABSOLUTE LYMPHOCYTE / ABSOLUTE MONOCYTE / ABSOLUTE SEGMENTED NEUTROPHIL / BASOPHIL / EOSINOPHIL / ERYTHROCYTE COUNT / HEMATOCRIT / HEMOGLOBIN / LEUKOCYTE COUNT / LYMPHOCYTE / MEAN CORPUSCULAR HEMOGLOBIN / MEAN CORPUSCULAR HEMOGLOBIN CONCENTRATION / MEAN CORPUSCULAR VOLUME / MONOCYTE / NEUTROPHIL / NUCLEATED RED BLOOD CELLS / PLATELET COUNT: tissue Blood; for ALANINE AMINOTRANSFERASE / ALBUMIN / ALKALINE PHOSPHATASE / ASPARTATE AMINOTRANSFERASE / BLOOD UREA NITROGEN / CARBON DIOXIDE / CHLORIDE / CHOLESTEROL / CREATINE PHOSPHOKINASE / CREATININE / GLUCOSE / LACTATE DEHYDROGENASE / LIPASE / PHOSPHORUS / POTASSIUM / SODIUM / TOTAL BILIRUBIN / TOTAL PROTEIN / URIC ACID: tissue Plasma
[1] = 0 mg/kg, 72 h, dose level Control, time 3 day
[2] = 0 mg/kg, 120 h, dose level Control, time 5 day
[3] = 5 mg/kg, 72 h, dose level Low, time 3 day

SMILES: O=c1oc2ccccc2c(O)c1Cc1c(O)c2ccccc2oc1=O [DICUMAROL]
- ABSOLUTE BASOPHIL [1]: 0 CELLS/uL
- ABSOLUTE EOSINOPHIL [1]: 0 CELLS/uL
- ABSOLUTE LYMPHOCYTE [1]: 9244.83 CELLS/uL
- ABSOLUTE MONOCYTE [1]: 102 CELLS/uL
- ABSOLUTE SEGMENTED NEUTROPHIL [1]: 869.83 CELLS/uL
- BASOPHIL [1]: 0%
- EOSINOPHIL [1]: 0%
- ERYTHROCYTE COUNT [1]: 5.43 x10E6/uL
- HEMATOCRIT [1]: 34.03%
- HEMOGLOBIN [1]: 13.27 G/DL
- LEUKOCYTE COUNT [1]: 10.22 x10E3/uL
- LYMPHOCYTE [1]: 90.33%
- MEAN CORPUSCULAR HEMOGLOBIN [1]: 24.48 pg
- MEAN CORPUSCULAR HEMOGLOBIN CONCENTRATION [1]: 39.03 G/DL
- MEAN CORPUSCULAR VOLUME [1]: 62.75 fL
- MONOCYTE [1]: 1%
- NEUTROPHIL [1]: 8.67%
- NUCLEATED RED BLOOD CELLS [1]: 0.17 /100WBC
- PLATELET COUNT [1]: 989 x10E3/uL
- ALANINE AMINOTRANSFERASE [1]: 77 u/L
- ALBUMIN [1]: 3.97 G/DL
- ALKALINE PHOSPHATASE [1]: 464.83 u/L
- ASPARTATE AMINOTRANSFERASE [1]: 89.83 u/L
- BLOOD UREA NITROGEN [1]: 12.17 mg/dL
- CARBON DIOXIDE [1]: 34.17 mmol/L
- CHLORIDE [1]: 98.33 MEQ/L
- CHOLESTEROL [1]: 75.17 mg/dL
- CREATINE PHOSPHOKINASE [1]: 367.67 u/L
- CREATININE [1]: 0.16 mg/dL
- GLUCOSE [1]: 142.67 mg/dL
- LACTATE DEHYDROGENASE [1]: 139.33 u/L
- LIPASE [1]: 9.5 u/L
- PHOSPHORUS [1]: 10.85 mg/dL
- POTASSIUM [1]: 6.38 MEQ/L
- SODIUM [1]: 143.2 MEQ/L
- TOTAL BILIRUBIN [1]: 0.2 mg/dL
- TOTAL PROTEIN [1]: 5.77 G/DL
- URIC ACID [1]: 0.7 mg/dL
- ABSOLUTE BASOPHIL [2]: 0 CELLS/uL
- ABSOLUTE EOSINOPHIL [2]: 0 CELLS/uL
- ABSOLUTE LYMPHOCYTE [2]: 8295.33 CELLS/uL
- ABSOLUTE MONOCYTE [2]: 84.67 CELLS/uL
- ABSOLUTE SEGMENTED NEUTROPHIL [2]: 970 CELLS/uL
- BASOPHIL [2]: 0%
- EOSINOPHIL [2]: 0%
- ERYTHROCYTE COUNT [2]: 5.74 x10E6/uL
- HEMATOCRIT [2]: 36.22%
- HEMOGLOBIN [2]: 13.85 G/DL
- LEUKOCYTE COUNT [2]: 9.35 x10E3/uL
- LYMPHOCYTE [2]: 88.67%
- MEAN CORPUSCULAR HEMOGLOBIN [2]: 24.13 pg
- MEAN CORPUSCULAR HEMOGLOBIN CONCENTRATION [2]: 38.25 G/DL
- MEAN CORPUSCULAR VOLUME [2]: 63.08 fL
- MONOCYTE [2]: 1%
- NEUTROPHIL [2]: 10.33%
- NUCLEATED RED BLOOD CELLS [2]: 0.17 /100WBC
- PLATELET COUNT [2]: 883.83 x10E3/uL
- ALANINE AMINOTRANSFERASE [2]: 64.5 u/L
- ALBUMIN [2]: 4.12 G/DL
- ALKALINE PHOSPHATASE [2]: 425.67 u/L
- ASPARTATE AMINOTRANSFERASE [2]: 88.5 u/L
- BLOOD UREA NITROGEN [2]: 14.17 mg/dL
- CARBON DIOXIDE [2]: 30.5 mmol/L
- CHLORIDE [2]: 100.33 MEQ/L
- CHOLESTEROL [2]: 55.33 mg/dL
- CREATINE PHOSPHOKINASE [2]: 287.17 u/L
- CREATININE [2]: 0.2 mg/dL
- GLUCOSE [2]: 162.83 mg/dL
- LACTATE DEHYDROGENASE [2]: 111.33 u/L
- LIPASE [2]: 10.5 u/L
- PHOSPHORUS [2]: 10.32 mg/dL
- POTASSIUM [2]: 5.13 MEQ/L
- SODIUM [2]: 143.93 MEQ/L
- TOTAL BILIRUBIN [2]: 0.17 mg/dL
- TOTAL PROTEIN [2]: 5.9 G/DL
- URIC ACID [2]: 0.77 mg/dL
- ABSOLUTE BASOPHIL [3]: 0 CELLS/uL
- ABSOLUTE EOSINOPHIL [3]: 0 CELLS/uL
- ABSOLUTE LYMPHOCYTE [3]: 11414.33 CELLS/uL
- ABSOLUTE MONOCYTE [3]: 52 CELLS/uL
- ABSOLUTE SEGMENTED NEUTROPHIL [3]: 1133.67 CELLS/uL
- BASOPHIL [3]: 0%
- EOSINOPHIL [3]: 0%
- ERYTHROCYTE COUNT [3]: 5.32 x10E6/uL
- HEMATOCRIT [3]: 33.6%
- HEMOGLOBIN [3]: 13.17 G/DL
- LEUKOCYTE COUNT [3]: 12.6 x10E3/uL
- LYMPHOCYTE [3]: 91%
- MEAN CORPUSCULAR HEMOGLOBIN [3]: 24.8 pg
- MEAN CORPUSCULAR HEMOGLOBIN CONCENTRATION [3]: 39.2 G/DL
- MEAN CORPUSCULAR VOLUME [3]: 63.37 fL
- MONOCYTE [3]: 0.33%
- NEUTROPHIL [3]: 8.67%
- NUCLEATED RED BLOOD CELLS [3]: 0 /100WBC
- PLATELET COUNT [3]: 1057.33 x10E3/uL
- ALANINE AMINOTRANSFERASE [3]: 67.67 u/L
- ALBUMIN [3]: 4.03 G/DL
- ALKALINE PHOSPHATASE [3]: 399.67 u/L
- ASPARTATE AMINOTRANSFERASE [3]: 91 u/L
- BLOOD UREA NITROGEN [3]: 10.33 mg/dL
- CARBON DIOXIDE [3]: 32.67 mmol/L
- CHLORIDE [3]: 99 MEQ/L
- CHOLESTEROL [3]: 74 mg/dL
- CREATINE PHOSPHOKINASE [3]: 353.33 u/L
- CREATININE [3]: 0.24 mg/dL
- GLUCOSE [3]: 146 mg/dL
- LACTATE DEHYDROGENASE [3]: 177 u/L
- LIPASE [3]: 9 u/L
- PHOSPHORUS [3]: 11.23 mg/dL
- POTASSIUM [3]: 6.24 MEQ/L
- SODIUM [3]: 143.6 MEQ/L
- TOTAL BILIRUBIN [3]: 0.17 mg/dL
- TOTAL PROTEIN [3]: 5.7 G/DL
- URIC ACID [3]: 0.6 mg/dL
